The text below walks through data of patent US20260285873A1, “CYCLIC COMPOUNDS USED AS MULTI-TARGET KINASE INHIBITORS AND PREPARATION METHOD THEREFOR” (Shanghai Institute of Organic Chemistry, Chinese Academy of …, priority 2022, published 2026).

Where two headings read alike, the source gives them in different places.

The nature of data set [1]: Oral pharmacokinetic study in rats. Format: in vivo. Conditions: rat, brain, male SD rats, oral gavage, read-out: B/P (1 h). How it is done:
Drug preparation: 1% MC was added to the compound, ground, and shaken uniformly. Samples were collected at 5 min, 15 min, 30 min, 1 h, 2 h, 4 h, and 8 h post-dose, followed by analysis using liquid chromatography-tandem mass spectrometry (LC-MS/MS).

Data set [2] addresses LRRK2 wt (Homo sapiens, UniProt Q5S007). The data set can be described thus: Kinase activity inhibition assay (ADP-Glo), LRRK2 wt. Format: biochemical. Conditions: read-out: LRRK2 wt inhibition rate at 100 nM; compound at 100 nM. As to the method: The kinase activity inhibition assay was performed by ICE Bioscience (Beijing) using ADP-Glo and HTRF methods.

LRRK2 wt, sequence (Q5S007 whole entry): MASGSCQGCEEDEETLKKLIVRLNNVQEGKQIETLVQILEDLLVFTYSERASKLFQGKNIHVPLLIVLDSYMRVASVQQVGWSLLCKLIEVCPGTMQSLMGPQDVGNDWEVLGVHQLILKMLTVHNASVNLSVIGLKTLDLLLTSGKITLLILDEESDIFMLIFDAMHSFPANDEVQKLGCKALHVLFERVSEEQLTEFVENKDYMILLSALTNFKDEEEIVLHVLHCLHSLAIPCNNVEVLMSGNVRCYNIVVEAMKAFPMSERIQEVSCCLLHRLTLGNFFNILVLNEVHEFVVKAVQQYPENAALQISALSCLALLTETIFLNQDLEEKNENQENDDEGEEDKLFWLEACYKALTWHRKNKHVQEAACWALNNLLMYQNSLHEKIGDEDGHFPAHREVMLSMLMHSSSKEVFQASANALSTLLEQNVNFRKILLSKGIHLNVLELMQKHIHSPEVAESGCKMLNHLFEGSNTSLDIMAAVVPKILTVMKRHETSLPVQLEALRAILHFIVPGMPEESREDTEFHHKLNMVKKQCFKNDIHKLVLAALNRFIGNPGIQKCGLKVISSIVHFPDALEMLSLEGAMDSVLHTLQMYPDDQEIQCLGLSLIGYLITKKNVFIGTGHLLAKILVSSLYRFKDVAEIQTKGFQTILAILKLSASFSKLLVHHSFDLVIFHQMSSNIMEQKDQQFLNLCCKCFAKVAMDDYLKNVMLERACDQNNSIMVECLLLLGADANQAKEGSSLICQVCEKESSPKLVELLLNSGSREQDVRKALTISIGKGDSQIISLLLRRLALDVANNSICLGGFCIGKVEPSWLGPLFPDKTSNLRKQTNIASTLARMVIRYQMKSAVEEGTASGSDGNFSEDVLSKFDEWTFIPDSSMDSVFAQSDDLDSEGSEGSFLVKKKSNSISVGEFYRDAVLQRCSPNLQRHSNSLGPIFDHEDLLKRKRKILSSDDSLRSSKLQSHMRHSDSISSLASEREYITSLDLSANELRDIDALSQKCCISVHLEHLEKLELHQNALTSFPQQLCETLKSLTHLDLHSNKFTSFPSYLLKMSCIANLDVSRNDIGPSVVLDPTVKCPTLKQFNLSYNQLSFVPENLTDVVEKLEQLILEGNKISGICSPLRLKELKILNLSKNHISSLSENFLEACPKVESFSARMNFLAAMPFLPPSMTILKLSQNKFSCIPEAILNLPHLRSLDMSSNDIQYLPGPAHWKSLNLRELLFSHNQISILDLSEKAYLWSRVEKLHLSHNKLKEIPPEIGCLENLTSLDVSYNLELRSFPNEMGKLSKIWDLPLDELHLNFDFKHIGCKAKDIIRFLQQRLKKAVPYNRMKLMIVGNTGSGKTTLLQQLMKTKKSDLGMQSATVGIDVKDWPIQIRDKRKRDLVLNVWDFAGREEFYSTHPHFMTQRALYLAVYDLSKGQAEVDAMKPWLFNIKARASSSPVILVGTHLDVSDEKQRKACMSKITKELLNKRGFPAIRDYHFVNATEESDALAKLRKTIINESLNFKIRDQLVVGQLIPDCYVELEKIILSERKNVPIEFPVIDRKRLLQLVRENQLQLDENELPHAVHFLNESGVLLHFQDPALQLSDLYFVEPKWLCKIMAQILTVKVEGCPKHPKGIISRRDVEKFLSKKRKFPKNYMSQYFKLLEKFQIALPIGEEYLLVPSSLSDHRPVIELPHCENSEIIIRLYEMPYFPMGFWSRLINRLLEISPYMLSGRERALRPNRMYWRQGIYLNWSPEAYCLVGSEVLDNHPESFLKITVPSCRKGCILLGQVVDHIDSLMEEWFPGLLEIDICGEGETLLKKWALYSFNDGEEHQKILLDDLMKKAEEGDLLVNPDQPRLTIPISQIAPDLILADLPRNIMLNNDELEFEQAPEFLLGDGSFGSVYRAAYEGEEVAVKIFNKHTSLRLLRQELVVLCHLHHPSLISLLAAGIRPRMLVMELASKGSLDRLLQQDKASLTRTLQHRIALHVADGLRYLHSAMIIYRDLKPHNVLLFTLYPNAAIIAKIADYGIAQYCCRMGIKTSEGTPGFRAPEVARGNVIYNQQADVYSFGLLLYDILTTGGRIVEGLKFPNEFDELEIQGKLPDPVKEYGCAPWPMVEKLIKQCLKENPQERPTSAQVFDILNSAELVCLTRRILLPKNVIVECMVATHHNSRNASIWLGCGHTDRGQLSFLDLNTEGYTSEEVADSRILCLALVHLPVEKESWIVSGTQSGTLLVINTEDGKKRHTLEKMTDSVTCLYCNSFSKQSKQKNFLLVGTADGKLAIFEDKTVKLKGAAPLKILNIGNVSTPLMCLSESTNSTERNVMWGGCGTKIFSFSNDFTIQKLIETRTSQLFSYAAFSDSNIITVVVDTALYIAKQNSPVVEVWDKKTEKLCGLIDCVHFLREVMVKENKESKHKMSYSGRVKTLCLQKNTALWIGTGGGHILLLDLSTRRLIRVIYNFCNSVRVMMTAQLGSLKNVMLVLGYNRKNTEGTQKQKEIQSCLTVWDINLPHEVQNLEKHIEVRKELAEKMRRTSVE

For `Cc1nn2cc1Nc1ncc(C(F)(F)F)c(n1)NCCCNC(=O)C2(C)C` [Example T-1, (E)-3^3,4,4-Trimethyl-15-(trifluoromethyl)-3^1H-2,6,10-triaza-1(2,4)-pyrimidina-3(4,1)-pyrazolacyclodecan-5-one], the Kp at 1 h in data set [1] (3 mg/kg, 3 mpk) was 0.13. Take `Cc1nn2cc1Nc1ncc3c(Cl)cc(n3n1)CCCNC(=O)C2(C)C` [Example T-25, (1^1Z,3^4E)-1^5-Chloro-3^3,4,4-trimethyl-3^1H-2,6-diaza-1(2,7)-pyrrolo[2,1-f][1,2,4]triazine-3(4,1)-pyrazolacyclononan-5-one]: the Kp at 1 h in data set [1] (5 mg/kg, 5 mpk) is 0.58. `Cc1nn2cc1Nc1ncc(C(F)(F)F)c(n1)NC1CCCC(C1)NC(=O)C2(C)C` (stereo not drawn) [Example T-42, (5^3R,E)-1^3,8,8-Trimethyl-3^5-(trifluoromethyl)-1^1H-2,4,6-triaza-3(2,4)-pyrimidina-1(4,1)-pyrazola-5(1,3)-cyclohexacyclooctan-7-one]: the inhibition (as a rule, the percentage by which the read-out fell short of the control) at 0.1 µM in data set [2] worked out at 42.1%.
